Laboratory results reported in US8802597B2, “Herbicidal pyrimidines” (E I du Pont de Nemours and Company, priority 2003, dated 2014).
Read-outs that look alike come from different tables or passages of the source.

How the values were obtained:
Type in all cases: in vivo
[1] = tested on: umbrella sedge (Cyperus difformis); assay: Test B flooded paddy test; settings: Cyperus difformis, Flood, 1000 g ai/ha; scale 0 to 100; read-out: Plant response rating, Sedge, Umbrella
Summary of the method: (§1)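 Plants were grown to the 2-leaf stage before treatment, then kept in a greenhouse for 13 to 15 days. Injury was rated visually against untreated controls on a 0 to 100 scale, where 0 is no effect and 100 is complete control.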

rice (Oryza sativa) = assay: Test B flooded paddy test; settings: Oryza sativa, Flood, 1000 g ai/ha; scale 0 to 100; read-out: Plant response rating, Rice
Summary of the method: as §1

[2] = tested on: duck salad (Heteranthera limosa); assay: Test B flooded paddy test; settings: Heteranthera limosa, Flood, 1000 g ai/ha; scale 0 to 100; read-out: Plant response rating, Ducksalad
Summary of the method: as §1

[3] = tested on: barnyardgrass (Echinochloa crus-galli); assay: Test B flooded paddy test; settings: Echinochloa crus-galli, Flood, 1000 g ai/ha; scale 0 (no effect) to 100 (complete control); read-out: Plant response rating, Barnyardgrass
Summary of the method: as §1

[4] = tested on: giant foxtail (Setaria faberii); assay: Test B pre/postemergence; settings: Setaria faberi; for pest or weed control at 125 g/ha: 125 g ai/ha; for pest or weed control at 500 g/ha: 500 g ai/ha
Summary of the method: (§2)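 Compounds in non-phytotoxic solvent with surfactant applied preemergence to planted seeds or postemergence to plants 2 to 18 cm tall (1- to 4-leaf stage). Greenhouse 13 to 15 days, then visual rating against controls on a 0 to 100 scale (100 = complete control).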

[5] = tested on: Surinam grass (Brachiaria decumbens); assay: Test B pre/postemergence; settings: Urochloa decumbens; for pest or weed control at 125 g/ha: 125 g ai/ha; for pest or weed control at 500 g/ha: 500 g ai/ha
Summary of the method: as §2

[6] = tested on: cocklebur (Xanthium strumarium); assay: Test B pre/postemergence; settings: Xanthium strumarium; for pest or weed control at 125 g/ha: 125 g ai/ha; for pest or weed control at 500 g/ha: 500 g ai/ha
Summary of the method: as §2

[7] = tested on: crabgrass (Digitaria sanguinalis); assay: Test B pre/postemergence; settings: Digitaria sanguinalis; for pest or weed control at 125 g/ha: 125 g ai/ha; for pest or weed control at 500 g/ha: 500 g ai/ha
Summary of the method: as §2

[8] = tested on: wheat (Triticum aestivum); assay: Test B pre/postemergence; settings: Triticum aestivum; for plant injury at 125 g/ha: 125 g ai/ha; for plant injury at 500 g/ha: 500 g ai/ha
Summary of the method: as §2

[9] = tested on: velvetleaf (Abutilon theophrasti); assay: Test B pre/postemergence; settings: Abutilon theophrasti; for pest or weed control at 125 g/ha: 125 g ai/ha; for pest or weed control at 500 g/ha: 500 g ai/ha
Summary of the method: as §2

[10] = tested on: pigweed (Amaranthus retroflexus); assay: Test B pre/postemergence; settings: Amaranthus retroflexus; for pest or weed control at 125 g/ha: 125 g ai/ha; for pest or weed control at 500 g/ha: 500 g ai/ha
Summary of the method: as §2

[11] = tested on: lambsquarters (Chenopodium album); assay: Test B pre/postemergence; settings: Chenopodium album; for pest or weed control at 125 g/ha: 125 g ai/ha; for pest or weed control at 500 g/ha: 500 g ai/ha
Summary of the method: as §2

corn (Zea mays) = assay: Test B pre/postemergence; settings: Zea mays
Summary of the method: as §2

[12] = tested on: morningglory (Ipomoea coccinea); assay: Test B pre/postemergence; settings: Ipomoea; for pest or weed control at 125 g/ha: 125 g ai/ha; for pest or weed control at 500 g/ha: 500 g ai/ha
Summary of the method: as §2

[13] = tested on: barnyardgrass (Echinochloa crus-galli); assay: Test B pre/postemergence; settings: Echinochloa crus-galli; for pest or weed control at 125 g/ha: 125 g ai/ha; for pest or weed control at 500 g/ha: 500 g ai/ha
Summary of the method: as §2

[14] = tested on: blackgrass (Alopecurus myosuroides); assay: Test B postemergence; settings: Alopecurus myosuroides, post-emergence
Summary of the method: as §2

wild oat (Avena fatua) = assay: Test B postemergence; settings: Avena fatua, post-emergence
Summary of the method: as §2

In the case of `COC(=O)c1nc(C2CC2)nc(N)c1Cl` [Compound 9, methyl 6-amino-5-chloro-2-cyclopropyl-4-pyrimidinecarboxylate], the pest or weed control at 1000 g/ha [1] was 90%, the plant injury at 1000 g/ha (rice (Oryza sativa)) was 80% and the pest or weed control at 1000 g/ha [2] was 100%. For the same compound, the pest or weed control at 1000 g/ha [3] was 90%, the pest or weed control at 125 g/ha ([4]; post-emergence, Postemergence, scale 0 to 100 (0 no effect, 100 complete control), read-out: Foxtail, Giant plant response rating) was 90% and the pest or weed control at 500 g/ha ([4]; post-emergence, Postemergence, scale 0 to 100, read-out: Plant response rating, Foxtail, Giant) was 90%. For the same compound, the pest or weed control at 125 g/ha ([4]; pre-emergence, Preemergence, scale 0 to 100 (0 no effect, 100 complete control), read-out: Plant response rating, Foxtail, Giant) was 70%, the pest or weed control at 500 g/ha ([4]; pre-emergence, Preemergence, scale 0 to 100 (0 no effect, 100 complete control), read-out: Foxtail, Giant plant response rating) was 80% and the pest or weed control at 125 g/ha ([5]; post-emergence, Postemergence, scale 0 to 100 (0 no effect, 100 complete control), read-out: Surinam Grass plant response rating) was 90%. For the same compound, the pest or weed control at 500 g/ha ([5]; post-emergence, Postemergence, scale 0 to 100, read-out: Plant response rating, Surinam Grass) was 90%, the pest or weed control at 125 g/ha ([5]; pre-emergence, Preemergence, scale 0 to 100 (0 no effect, 100 complete control), read-out: Plant response rating, Surinam Grass) was 70% and the pest or weed control at 500 g/ha ([5]; pre-emergence, Preemergence, scale 0 to 100 (0 no effect, 100 complete control), read-out: Surinam Grass plant response rating) was 90%. It also gave a pest or weed control at 125 g/ha ([6]; post-emergence, Postemergence, scale 0 to 100 (0 no effect, 100 complete control), read-out: Cocklebur plant response rating) of 100%, a pest or weed control at 500 g/ha ([6]; post-emergence, Postemergence, scale 0 to 100, read-out: Plant response rating, Cocklebur) of 100% and a pest or weed control at 125 g/ha ([6]; pre-emergence, Preemergence, scale 0 to 100 (0 no effect, 100 complete control), read-out: Plant response rating, Cocklebur) of 90%. It also gave a pest or weed control at 500 g/ha ([6]; pre-emergence, Preemergence, scale 0 to 100 (0 no effect, 100 complete control), read-out: Cocklebur plant response rating) of 100%, a pest or weed control at 125 g/ha ([7]; post-emergence, Postemergence, scale 0 to 100 (0 no effect, 100 complete control), read-out: Crabgrass plant response rating) of 90% and a pest or weed control at 500 g/ha ([7]; post-emergence, Postemergence, scale 0 to 100, read-out: Plant response rating, Crabgrass) of 90%. For the same compound, the pest or weed control at 125 g/ha ([7]; pre-emergence, Preemergence, scale 0 to 100 (0 no effect, 100 complete control), read-out: Plant response rating, Crabgrass) was 90%, the pest or weed control at 500 g/ha ([7]; pre-emergence, Preemergence, scale 0 to 100 (0 no effect, 100 complete control), read-out: Crabgrass plant response rating) was 100% and the plant injury at 125 g/ha ([8]; post-emergence, Postemergence, scale 0 to 100 (0 no effect, 100 complete control), read-out: Wheat plant response rating) was 40%. For the same compound, the plant injury at 500 g/ha ([8]; post-emergence, Postemergence, scale 0 to 100, read-out: Plant response rating, Wheat) was 70%, the plant injury at 125 g/ha ([8]; pre-emergence, Preemergence, scale 0 to 100 (0 no effect, 100 complete control), read-out: Plant response rating, Wheat) was 40% and the plant injury at 500 g/ha ([8]; pre-emergence, Preemergence, scale 0 to 100 (0 no effect, 100 complete control), read-out: Wheat plant response rating) was 80%. For the same compound, the pest or weed control at 125 g/ha ([9]; post-emergence, Postemergence, scale 0 to 100 (0 no effect, 100 complete control), read-out: Velvetleaf plant response rating) was 100%, the pest or weed control at 500 g/ha ([9]; post-emergence, Postemergence, scale 0 to 100, read-out: Plant response rating, Velvetleaf) was 100% and the pest or weed control at 125 g/ha ([9]; pre-emergence, Preemergence, scale 0 to 100 (0 no effect, 100 complete control), read-out: Plant response rating, Velvetleaf) was 90%. The pest or weed control at 500 g/ha ([9]; pre-emergence, Preemergence, scale 0 to 100 (0 no effect, 100 complete control), read-out: Velvetleaf plant response rating) was 100%, the pest or weed control at 125 g/ha ([10]; post-emergence, Postemergence, scale 0 to 100 (0 no effect, 100 complete control), read-out: Pigweed plant response rating) was 100% and the pest or weed control at 500 g/ha ([10]; post-emergence, Postemergence, scale 0 to 100, read-out: Plant response rating, Pigweed) was 100%. For the same compound, the pest or weed control at 125 g/ha ([10]; pre-emergence, Preemergence, scale 0 to 100 (0 no effect, 100 complete control), read-out: Plant response rating, Pigweed) was 90%, the pest or weed control at 500 g/ha ([10]; pre-emergence, Preemergence, scale 0 to 100 (0 no effect, 100 complete control), read-out: Pigweed plant response rating) was 100% and the pest or weed control at 125 g/ha ([11]; post-emergence, Postemergence, scale 0 to 100 (0 no effect, 100 complete control), read-out: Lambsquarters plant response rating) was 90%. It also gave a pest or weed control at 500 g/ha ([11]; post-emergence, Postemergence, scale 0 to 100, read-out: Plant response rating, Lambsquarters) of 100%, a pest or weed control at 125 g/ha ([11]; pre-emergence, Preemergence, scale 0 to 100 (0 no effect, 100 complete control), read-out: Plant response rating, Lambsquarters) of 90% and a pest or weed control at 500 g/ha ([11]; pre-emergence, Preemergence, scale 0 to 100 (0 no effect, 100 complete control), read-out: Lambsquarters plant response rating) of 100%. The plant injury at 125 g/ha (corn (Zea mays); post-emergence, Postemergence, 125 g ai/ha, scale 0 to 100 (0 no effect, 100 complete control), read-out: Corn plant response rating) was 70%, the Corn plant response rating (crop injury, 0 = no effect, 100 = complete kill) at 500 g/ha (corn (Zea mays); post-emergence, Postemergence, 500 g ai/ha, scale 0 to 100) was 90% and the Corn plant response rating (crop injury, 0 = no effect, 100 = complete kill) at 125 g/ha (corn (Zea mays); pre-emergence, Preemergence, 125 g ai/ha, scale 0 to 100 (0 no effect, 100 complete control)) was 50%. For the same compound, the plant injury at 500 g/ha (corn (Zea mays); pre-emergence, Preemergence, 500 g ai/ha, scale 0 to 100 (0 no effect, 100 complete control), read-out: Corn plant response rating) was 80%, the pest or weed control at 125 g/ha ([12]; post-emergence, Postemergence, scale 0 to 100 (0 no effect, 100 complete control), read-out: Morningglory plant response rating) was 100% and the pest or weed control at 500 g/ha ([12]; post-emergence, Postemergence, scale 0 to 100, read-out: Plant response rating, Morningglory) was 100%. The pest or weed control at 125 g/ha ([12]; pre-emergence, Preemergence, scale 0 to 100 (0 no effect, 100 complete control), read-out: Plant response rating, Morningglory) was 100%, the pest or weed control at 500 g/ha ([12]; pre-emergence, Preemergence, scale 0 to 100 (0 no effect, 100 complete control), read-out: Morningglory plant response rating) was 100% and the pest or weed control at 125 g/ha ([13]; post-emergence, Postemergence, scale 0 to 100 (0 no effect, 100 complete control), read-out: Barnyardgrass plant response rating) was 90%. For the same compound, the pest or weed control at 500 g/ha ([13]; post-emergence, Postemergence, scale 0 to 100, read-out: Plant response rating, Barnyardgrass) was 90%, the pest or weed control at 125 g/ha ([13]; pre-emergence, Preemergence, scale 0 to 100 (0 no effect, 100 complete control), read-out: Plant response rating, Barnyardgrass) was 50% and the pest or weed control at 500 g/ha ([13]; pre-emergence, Preemergence, scale 0 to 100 (0 no effect, 100 complete control), read-out: Barnyardgrass plant response rating) was 90%. It also gave a pest or weed control at 125 g/ha ([14]; 125 g ai/ha, scale 0 to 100 (0 no effect, 100 complete control), read-out: Blackgrass plant response rating) of 60%, a pest or weed control at 500 g/ha ([14]; 500 g ai/ha, scale 0 to 100, read-out: Plant response rating, Blackgrass) of 80% and a pest or weed control at 125 g/ha (wild oat (Avena fatua); 125 g ai/ha, scale 0 to 100 (0 no effect, 100 complete control), read-out: Oat, Wild plant response rating) of 20%. The pest or weed control at 500 g/ha (wild oat (Avena fatua); 500 g ai/ha, scale 0 to 100, read-out: Plant response rating, Oat, Wild) was 70%.
